Measurements reported in PubChem BioAssay AID1963827 (Molecular Pharmacology Branch, DTP, NCI, 2024).

Test system: 994946-033-R-J1-PDC complex spheroid viability
Assay: Anticancer human tumor 994946-033-R-J1-PDC patient-derived melanoma cell line growth inhibition [POLQ]
Settings: for IC50: curve of first compound; for viability, T/C: stronger effect = lower value
Procedure, shortened: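 Growth inhibition in 3D: complex spheroids (tumor PDC, HUVEC, MSC) treated with POLQ inhibitor combinations; where Cmax unknown, highest tested concentration 10 microM, except SN-38 at 1 microM.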

[1] = second compound 0.0316 µM, first compound 0.0316 µM
[2] = second compound 0.0316 µM, first compound 0.1 µM
[3] = second compound 0.0316 µM, first compound 0.316 µM
[4] = second compound 0.0316 µM, first compound 1 µM
[5] = second compound 0.0316 µM, first compound 3.16 µM
[6] = second compound 0.0316 µM, first compound 10 µM
[7] = second compound 0.1 µM, first compound 0.0316 µM
[8] = second compound 0.1 µM, first compound 0.1 µM
[9] = second compound 0.1 µM, first compound 0.316 µM
[10] = second compound 0.1 µM, first compound 1 µM
[11] = second compound 0.1 µM, first compound 3.16 µM
[12] = second compound 0.1 µM, first compound 10 µM
[13] = second compound 0.316 µM, first compound 0.0316 µM
[14] = second compound 0.316 µM, first compound 0.1 µM
[15] = second compound 0.316 µM, first compound 0.316 µM
[16] = second compound 0.316 µM, first compound 1 µM
[17] = second compound 0.316 µM, first compound 3.16 µM
[18] = second compound 0.316 µM, first compound 10 µM
[19] = second compound 1 µM, first compound 0.0316 µM
[20] = second compound 1 µM, first compound 0.1 µM
[21] = second compound 1 µM, first compound 0.316 µM
[22] = second compound 1 µM, first compound 1 µM
[23] = second compound 1 µM, first compound 3.16 µM
[24] = second compound 1 µM, first compound 10 µM
[25] = second compound 3.16 µM, first compound 0.0316 µM
[26] = second compound 3.16 µM, first compound 0.1 µM
[27] = second compound 3.16 µM, first compound 0.316 µM
[28] = second compound 3.16 µM, first compound 1 µM
[29] = second compound 3.16 µM, first compound 3.16 µM
[30] = second compound 3.16 µM, first compound 10 µM
[31] = second compound 10 µM, first compound 0.0316 µM
[32] = second compound 10 µM, first compound 0.1 µM
[33] = second compound 10 µM, first compound 0.316 µM
[34] = second compound 10 µM, first compound 1 µM
[35] = second compound 10 µM, first compound 3.16 µM
[36] = second compound 10 µM, first compound 10 µM
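Further: spheroids exposed to drugs for 7 days.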
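Wherever viability, T/C is given: 100% = DMSO vehicle treated spheroids.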

COc1cccc2c1C(=O)c1c(O)c3c(c(O)c1C2=O)CC(O)(C(=O)CO)CC3OC1CC(N)C(O)C(C)O1 (stereo unspecified) + Cc1cccc(N(C)C(=O)C2C(O)CCN2c2nc(C)cc(C(F)(F)F)c2C#N)c1
IC50 (second compound 0.0316 µM): < 0.0316 µM | IC50 (second compound 0.1 µM): < 0.0316 µM | IC50 (second compound 0.316 µM): < 0.0316 µM | IC50 (second compound 1 µM): < 0.0316 µM | IC50 (second compound 3.16 µM): < 0.0316 µM | IC50 (second compound 10 µM): < 0.0316 µM | viability, T/C [1]: 31.8% | viability, T/C [2]: 10.5% | viability, T/C [3]: 2.24% | viability, T/C [4]: 1.98% | viability, T/C [5]: 2.99% | viability, T/C [6]: 0.53% | viability, T/C [7]: 26.8% | viability, T/C [8]: 6.95% | viability, T/C [9]: 3.98% | viability, T/C [10]: 0.54% | viability, T/C [11]: 1.3% | viability, T/C [12]: 1.07% | viability, T/C [13]: 22.5% | viability, T/C [14]: 7.12% | viability, T/C [15]: 3.03% | viability, T/C [16]: 2.42% | viability, T/C [17]: 1.56% | viability, T/C [18]: 0.77% | viability, T/C [19]: 47.9% | viability, T/C [20]: 7.31% | viability, T/C [21]: 1.73% | viability, T/C [22]: 2.31% | viability, T/C [23]: 1.01% | viability, T/C [24]: 0.51% | viability, T/C [25]: 22.8% | viability, T/C [26]: 7.88% | viability, T/C [27]: 1.7% | viability, T/C [28]: 1.41% | viability, T/C [29]: 1.39% | viability, T/C [30]: 0.69% | viability, T/C [31]: 33.1% | viability, T/C [32]: 8.28% | viability, T/C [33]: 2.08% | viability, T/C [34]: 1.32% | viability, T/C [35]: 0.67% | viability, T/C [36]: 0.65%

C=CC(=O)N1CCN(c2nc(=O)n(-c3c(C)ccnc3C(C)C)c3nc(-c4c(O)cccc4F)c(F)cc23)C(C)C1 (stereo unspecified) + Nc1ccc(C#CCN(C(=O)Cc2ncc(C(F)(F)F)cc2C(F)(F)F)c2ccc(F)cc2)nn1
IC50 (second compound 0.0316 µM): > 10 µM | IC50 (second compound 0.1 µM): > 10 µM | IC50 (second compound 0.316 µM): > 10 µM | IC50 (second compound 1 µM): > 10 µM | IC50 (second compound 3.16 µM): > 10 µM | IC50 (second compound 10 µM): > 10 µM | viability, T/C [1]: 92.1% | viability, T/C [2]: 94.9% | viability, T/C [3]: 73.3% | viability, T/C [4]: 119% | viability, T/C [5]: 130% | viability, T/C [6]: 86.9% | viability, T/C [7]: 102% | viability, T/C [8]: 108% | viability, T/C [9]: 75.2% | viability, T/C [10]: 119% | viability, T/C [11]: 74.6% | viability, T/C [12]: 70.7% | viability, T/C [13]: 104% | viability, T/C [14]: 52.8% | viability, T/C [15]: 112% | viability, T/C [16]: 110% | viability, T/C [17]: 103% | viability, T/C [18]: 73.7% | viability, T/C [19]: 94.2% | viability, T/C [20]: 125% | viability, T/C [21]: 108% | viability, T/C [22]: 102% | viability, T/C [23]: 130% | viability, T/C [24]: 122% | viability, T/C [25]: 80.7% | viability, T/C [26]: 112% | viability, T/C [27]: 83.8% | viability, T/C [28]: 119% | viability, T/C [29]: 118% | viability, T/C [30]: 98.4% | viability, T/C [31]: 110% | viability, T/C [32]: 117% | viability, T/C [33]: 110% | viability, T/C [34]: 105% | viability, T/C [35]: 120% | viability, T/C [36]: 116%

CCc1cc2c(N3CCc4c(cc(Cn5ccnc5)cc4-c4cn(C)nc4C(F)(F)F)C3=O)cc(C)nc2c(OC)n1 + Cc1cccc(N(C)C(=O)C2C(O)CCN2c2nc(C)cc(C(F)(F)F)c2C#N)c1
IC50 (second compound 0.0316 µM): > 10 µM | IC50 (second compound 0.1 µM): > 10 µM | IC50 (second compound 0.316 µM): > 10 µM | IC50 (second compound 1 µM): 6.22 µM | IC50 (second compound 3.16 µM): > 10 µM | IC50 (second compound 10 µM): > 10 µM | viability, T/C [1]: 74.7% | viability, T/C [2]: 61.9% | viability, T/C [3]: 94.6% | viability, T/C [4]: 79.2% | viability, T/C [5]: 68.4% | viability, T/C [6]: 69.9% | viability, T/C [7]: 73% | viability, T/C [8]: 84.7% | viability, T/C [9]: 90.7% | viability, T/C [10]: 88.8% | viability, T/C [11]: 90.5% | viability, T/C [12]: 77.6% | viability, T/C [13]: 63% | viability, T/C [14]: 78.5% | viability, T/C [15]: 60.2% | viability, T/C [16]: 66.5% | viability, T/C [17]: 61.3% | viability, T/C [18]: 53.1% | viability, T/C [19]: 106% | viability, T/C [20]: 76.1% | viability, T/C [21]: 78.8% | viability, T/C [22]: 81.4% | viability, T/C [23]: 69.6% | viability, T/C [24]: 38% | viability, T/C [25]: 76.5% | viability, T/C [26]: 83.3% | viability, T/C [27]: 60.4% | viability, T/C [28]: 74.3% | viability, T/C [29]: 66.8% | viability, T/C [30]: 67.6% | viability, T/C [31]: 76% | viability, T/C [32]: 73.2% | viability, T/C [33]: 68.1% | viability, T/C [34]: 89.2% | viability, T/C [35]: 73.8% | viability, T/C [36]: 64.1%
